Laboratory results taken from patent US5489675A, “Disaccharide sialidase substrates and inhibitors” (priority 1993, dated 1996).
pKi: −log10 of the molar value. Counter-ions that a name gives are not always drawn.

Experiments:
[1] = target: C. P. neuraminidase; format: biochemical, Clostridium perfringens; conditions: substrate 25, Dixon plots, 37° C.
[2] = target: Vibrio cholerae neuraminidase (Vibrio cholerae serotype O1, UniProt P0C6E9); format: biochemical; conditions: for rate of hydrolysis (time course): 0.75 mM sialoside, 37° C., 0-120 min, FIGS. 1 and 3 panel C
Vibrio cholerae neuraminidase, sequence (P0C6E9 25-781): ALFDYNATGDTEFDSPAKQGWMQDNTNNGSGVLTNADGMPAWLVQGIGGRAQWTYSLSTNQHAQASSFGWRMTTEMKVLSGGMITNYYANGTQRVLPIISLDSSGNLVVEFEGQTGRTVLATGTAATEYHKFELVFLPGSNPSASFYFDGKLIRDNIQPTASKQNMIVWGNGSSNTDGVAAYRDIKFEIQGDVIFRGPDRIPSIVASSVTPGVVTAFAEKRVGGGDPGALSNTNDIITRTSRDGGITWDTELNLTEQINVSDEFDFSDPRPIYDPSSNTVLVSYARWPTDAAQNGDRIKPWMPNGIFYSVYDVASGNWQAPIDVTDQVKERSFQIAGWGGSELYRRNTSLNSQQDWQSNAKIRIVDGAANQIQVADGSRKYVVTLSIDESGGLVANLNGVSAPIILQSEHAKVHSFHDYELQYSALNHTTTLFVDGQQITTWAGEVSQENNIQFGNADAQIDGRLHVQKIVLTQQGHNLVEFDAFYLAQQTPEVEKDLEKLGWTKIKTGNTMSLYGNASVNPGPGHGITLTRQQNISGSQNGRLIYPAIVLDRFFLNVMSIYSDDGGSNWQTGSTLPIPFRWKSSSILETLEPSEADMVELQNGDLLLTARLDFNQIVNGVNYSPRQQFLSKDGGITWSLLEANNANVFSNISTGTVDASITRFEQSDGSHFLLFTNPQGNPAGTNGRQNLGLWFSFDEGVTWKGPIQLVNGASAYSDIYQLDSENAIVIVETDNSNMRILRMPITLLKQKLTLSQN

[3] = system: Clostridium perfringens neuraminidase; format: biochemical; conditions: for rate of hydrolysis (time course): C. P. neuraminidase, 0.75 mM sialoside, 0-120 min, FIGS. 1 and 3 panel B; for rate of hydrolysis (time course) / Vmax: 37° C.; for Vmax: C. perfringens neuraminidase, sialoside as substrate, 20 min, Lineweaver-Burk; for Km: read-out: Michaelis Constant Km
[4] = target: T1, Arthrobacter ureafaciens neuraminidase (Paenarthrobacter ureafaciens, UniProt Q5W7Q2); assay: colorimetric neuraminidase assay (sialoside hydrolysis), A. ureafaciens; format: biochemical; conditions: 37° C.; for rate of hydrolysis (time course): A. U. neuraminidase, 0.75 mM sialoside, 0-120 min, FIGS. 1 and 3 panel A; for Vmax: A. ureafaciens neuraminidase, sialoside as substrate, 20 min, Lineweaver-Burk
T1 sequence (Q5W7Q2 39-990): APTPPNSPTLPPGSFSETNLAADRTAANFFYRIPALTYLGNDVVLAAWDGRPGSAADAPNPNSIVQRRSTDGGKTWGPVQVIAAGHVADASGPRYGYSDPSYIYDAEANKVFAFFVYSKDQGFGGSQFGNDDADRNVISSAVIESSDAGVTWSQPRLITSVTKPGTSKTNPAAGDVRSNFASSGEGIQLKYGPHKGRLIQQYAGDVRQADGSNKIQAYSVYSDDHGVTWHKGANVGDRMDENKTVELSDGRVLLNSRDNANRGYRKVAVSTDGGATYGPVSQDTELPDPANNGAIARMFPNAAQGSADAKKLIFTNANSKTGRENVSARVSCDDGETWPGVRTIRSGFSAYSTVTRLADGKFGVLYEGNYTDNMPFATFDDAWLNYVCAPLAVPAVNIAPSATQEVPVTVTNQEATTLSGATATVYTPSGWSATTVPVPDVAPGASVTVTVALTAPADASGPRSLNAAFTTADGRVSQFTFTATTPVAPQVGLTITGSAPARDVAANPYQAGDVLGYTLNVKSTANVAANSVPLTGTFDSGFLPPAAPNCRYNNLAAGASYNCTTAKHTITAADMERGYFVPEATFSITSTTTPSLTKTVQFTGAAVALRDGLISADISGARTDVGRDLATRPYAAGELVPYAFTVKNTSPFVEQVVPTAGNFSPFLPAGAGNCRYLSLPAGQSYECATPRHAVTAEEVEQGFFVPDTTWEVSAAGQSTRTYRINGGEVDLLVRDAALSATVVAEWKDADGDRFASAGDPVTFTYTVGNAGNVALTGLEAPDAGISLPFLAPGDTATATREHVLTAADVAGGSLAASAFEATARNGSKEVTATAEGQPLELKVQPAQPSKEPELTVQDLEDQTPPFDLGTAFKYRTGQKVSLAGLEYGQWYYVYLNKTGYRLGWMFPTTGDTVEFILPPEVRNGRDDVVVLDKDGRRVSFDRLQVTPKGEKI

Structure (SMILES) | pKi [1] | rate of hydrolysis (time course) [2] | rate of hydrolysis (time course) [3] | rate of hydrolysis (time course) [4] | Vmax [2] | Vmax [3] | Km [3] | Vmax [4]
CC(=O)NC1C(O)CC(SC(C)C2OC(O)C(O)C(O)C2O)(C(=O)O)OC1C(O)C(O)CO [Compound 22a, Sodium salt of 5-acetamido-3,5-dideoxy-D-glycero-D-galacto-nonulopyranosylonic acid (2-S-6) -7-deoxy-D-glycero-D-galactoheptopyranose] | 3.00 | – | – | – | – | – | – | –
CC(=O)N[C@H]1[C@H]([C@H](O)[C@H](O)CO)O[C@@](O[C@H](C)[C@H]2O[C@@H]3OC(C)(C)O[C@@H]3[C@H]3OC(C)(C)O[C@H]32)(C(=O)O)C[C@@H]1O [Compound 19a, Sodium salt of 5-acetamido-3,5-dideoxy-D-glycero-D-galacto-nonulopyranosylonic acid (2-6)-1,2;3,4-di-O-isopropylidene-7-deoxy-α-D-glycero-D-galactoheptopyranose] | – | no effect on the hydrolysis | detrimental effect | no effect on the hydrolysis | – | – | – | –
CC(=O)N[C@H]1[C@H]([C@H](O)[C@H](O)CO)O[C@@](O[C@H](C)[C@H]2O[C@@H](OCC[Si](C)(C)C)[C@H](O)[C@@H](O)[C@H]2O)(C(=O)O)C[C@@H]1O [Compound 16a, Sodium salt of 5-acetamido-3,5-dideoxy-D-glycero-D-galacto-nonulopyranosylonate(2-6)-7-deoxy-β-D-glycero-D-galactoheptopyranosyl-OCH2 CH2 Si (CH3)3] | – | preferentially hydrolyzed | – | efficiently hydrolyzed | 1.42 O.D./mU | 0.90 O.D./mU | 2150 µM | 0.91 O.D./mU
CC(=O)N[C@H]1[C@H]([C@H](O)[C@H](O)CO)O[C@@](O[C@@H](C)[C@H]2O[C@@H](OCC[Si](C)(C)C)[C@H](O)[C@@H](O)[C@H]2O)(C(=O)O)C[C@@H]1O [Compound 16b, Sodium salt of 5-acetamido-3,5-dideoxy-D-glycero-D-galacto-nonulopyranosylonate(2-6)-7-deoxy-α-L-glycero-D-galactoheptopyranosyl-OCH2 CH2 Si (CH3)3] | – | – | hydrolyzed very slowly | little hydrolysis | 0.37 O.D./mU | 0.22 O.D./mU | 3200 µM | 0.05 O.D./mU
CC(=O)N[C@H]1[C@H]([C@H](O)[C@H](O)CO)O[C@@](OC[C@H]2O[C@@H]3OC(C)(C)O[C@@H]3[C@H]3OC(C)(C)O[C@H]32)(C(=O)O)C[C@@H]1O [Compound 23b, reference compound] | – | more efficiently hydrolyzed | more efficiently hydrolyzed | more efficiently hydrolyzed | 4.5 O.D./mU | 1.70 O.D./mU | 1440 µM | 0.73 O.D./mU
CC(=O)N[C@H]1[C@H]([C@H](O)[C@H](O)CO)O[C@@](O[C@@H](C)[C@H]2O[C@@H]3OC(C)(C)O[C@@H]3[C@H]3OC(C)(C)O[C@H]32)(C(=O)O)C[C@@H]1O [Compound 19b, Sodium salt of 5-acetamido-3,5-dideoxy-D-glycero-D-galacto-nonulopyranosylonic acid (2-6)-1,2;3,4-di-O-isopropylidene-7-deoxy-α-D-glycero-D-galactoheptopyranose] | – | inactive | inactive | – | – | – | – | –
CC(=O)NC1C(O)CC(OCC2OC(OCC[Si](C)(C)C)C(O)C(O)C2O)(C(=O)O)OC1C(O)C(O)CO (centres unmarked) [Compound 23a, αDNeuAc (2-6) βDGal-OCH2 CH2 Si (CH3)3, reference compound] | – | most preferred substrate | faster than the tg sialoside 16a | efficiently hydrolyzed | 2.2 O.D./mU | 0.88 O.D./mU | 650 µM | 0.7 O.D./mU
